The test system of test [1] is IL-2 induced phosphorylation of STAT5 (JAK1/JAK3 activity) in human PBMCs. The test can be described thus: Cell Based assay PBMC (IL-2 stimulated pSTAT5). The settings on record: 0.5 h, rh IL-2, 30 min incubation, pSTAT5 ELISA, data displayed as pIC50. As to the method:
In addition to enzymatic potency, the effects of the inhibitors against JAK1/JAK3 activity in a cellular assay was characterized against IL-2 induced phosphorylation of STATS level in human peripheral blood mononuclear cells (PBMCs).
PBMC have been isolated from human healthy volunteers. Cells were seeded in wells and treated with compounds and rh IL-2. After 30 min incubation cells were lysed and pSTAT5 determined by PathScan phospho-stats (Tyr694) ELISA (Cell signaling). Inhibitors were tested at 11 consecutive 5-fold dilutions starting from 30 μM (30 μM—3 pM) in duplicate. Calculation of IC50 data, curves and QC analysis were made using
Excel tools and GraphPadPrism software. QC criteria parameters: Z′≥0.35, Hill Slope range 0.5 to 5, S:B >2.
Background: ELISA stands for enzyme-linked immunosorbent assay.

The target in test [2] is JAK1 kinase (Homo sapiens (Human), UniProt P23458). The test can be described thus: Biochemical Potency JAK1 (TR-FRET LANCE Ultra kinase assay). The settings on record: ATP corresponding to Km. The text has this:
The objective of this study was to assess the activity of novel JAK inhibitors measuring the capability of compounds to inhibit JAK1 kinase activity in a biochemical time-resolved fluorescence resonance energy transfer (TR-FRET) LANCE assay. In
LANCE Ultra kinase assay in the presence of JAK1 kinase and ATP (corresponding to Km), the ULight peptide substrate (LANCE Ulight-JAK-1 (Tyr1023) Peptide, Perkin Elmer, TRF0121) was phosphorylated. It was then captured by a Eu-anti-phospho-substrate antibody (LANCE Eu-W1024 Anti-phosphotyrosine (PT66), Perkin Elmer, AD0069), which brought the Eu-chelate donor and ULight acceptor dyes into close proximity. Upon excitation at 320 nm, the Eu-chelate transfers its energy to the ULight dye, resulting in a fluorescent light emission at 665 nm. Inhibitors were tested at 11 consecutive 5-fold dilutions starting from 30 μM (30 μM—3 pM) in duplicate. Calculation of IC50 data, curves and QC analysis were made using Excel tools and GraphPadPrism software. QC criteria parameters: Z′≥0.5, Hill Slope range 0.5 to 5, S:B>2.

JAK1 kinase, sequence (P23458 whole entry): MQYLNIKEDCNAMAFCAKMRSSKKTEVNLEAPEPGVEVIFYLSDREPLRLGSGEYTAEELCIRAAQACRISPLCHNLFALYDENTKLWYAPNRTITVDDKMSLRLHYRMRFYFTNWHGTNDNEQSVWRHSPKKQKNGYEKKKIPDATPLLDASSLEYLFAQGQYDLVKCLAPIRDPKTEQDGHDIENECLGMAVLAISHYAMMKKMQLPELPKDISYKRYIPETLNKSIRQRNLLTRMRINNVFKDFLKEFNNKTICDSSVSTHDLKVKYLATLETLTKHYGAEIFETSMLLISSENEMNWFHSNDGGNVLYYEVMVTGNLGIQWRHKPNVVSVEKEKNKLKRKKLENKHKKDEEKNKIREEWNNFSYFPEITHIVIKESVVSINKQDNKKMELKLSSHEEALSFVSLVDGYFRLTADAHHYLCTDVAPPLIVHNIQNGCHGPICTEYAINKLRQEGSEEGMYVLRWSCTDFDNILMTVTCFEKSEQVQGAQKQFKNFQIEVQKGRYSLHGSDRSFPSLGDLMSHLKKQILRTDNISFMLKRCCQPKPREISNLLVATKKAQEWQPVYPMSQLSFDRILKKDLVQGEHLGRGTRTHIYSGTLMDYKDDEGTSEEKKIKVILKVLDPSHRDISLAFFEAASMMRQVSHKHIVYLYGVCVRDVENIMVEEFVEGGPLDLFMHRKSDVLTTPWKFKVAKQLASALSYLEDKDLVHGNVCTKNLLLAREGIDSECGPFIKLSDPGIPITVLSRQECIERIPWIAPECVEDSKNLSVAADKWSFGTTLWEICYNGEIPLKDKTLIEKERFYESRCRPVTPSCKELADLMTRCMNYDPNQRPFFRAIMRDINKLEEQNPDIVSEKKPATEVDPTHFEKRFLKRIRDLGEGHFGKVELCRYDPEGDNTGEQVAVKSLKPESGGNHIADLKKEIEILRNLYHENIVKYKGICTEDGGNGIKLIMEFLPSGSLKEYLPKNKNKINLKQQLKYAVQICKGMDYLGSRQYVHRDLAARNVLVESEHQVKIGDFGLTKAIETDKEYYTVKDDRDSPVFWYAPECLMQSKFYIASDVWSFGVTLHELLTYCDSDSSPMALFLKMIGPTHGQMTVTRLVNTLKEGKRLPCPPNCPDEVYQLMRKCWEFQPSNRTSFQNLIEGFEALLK

The molecule `CCOC(=O)c1cnc2ccsc2c1NC1CCN(c2ccc(C#N)c(F)c2)C1` (stereo not drawn) [Example 7, ethyl 7-((1-(4-cyano-3-fluorophenyl)pyrrolidin-3-yl)amino)thieno[3,2-b]pyridine-6-carboxylate] gave an IC50 in test [1] of 2.51 µM. Further, in test [2], the “Biochemical Potency JAK 1 (pIC50)” value is on record as 6.

Regarding `CN(c1ncnc2[nH]ccc12)C1CCN(C(C(=O)O)c2ccc(Cl)cc2F)C1` (stereo not drawn) [Example 6, 2-(4-chloro-2-fluorophenyl)-2-(3-(methyl(7H-pyrrolo[2,3-d]pyrimidin-4-yl)amino)pyrrolidin-1-yl)acetic acid], the “Biochemical Potency JAK 1 (pIC50)” value in test [2] is 5.3. As for `CN(c1ncnc2[nH]ccc12)[C@@H]1CCN(c2cc(F)ccc2C#N)C1` [Example 9, (R)-4-fluoro-2-(3-(methyl(7H-pyrrolo[2,3-d]pyrimidin-4-yl)amino)pyrrolidin-1-yl)benzonitrile], half-maximal inhibition in test [1] (IC50) required 0.398 µM. For the same molecule, the “Biochemical Potency JAK 1 (pIC50)” value in test [2] is listed as 7.6.

In turn, `CN(c1ncnc2[nH]ccc12)[C@@H]1CCN(c2ccc(C#N)c(F)c2)C1` [Example 1, (R)-2-fluoro-4-(3-(methyl(7H-pyrrolo[2,3-d]pyrimidin-4-yl)amino)pyrrolidin-1-yl)benzonitrile] showed an IC50 in test [1] of 0.0501 µM. In addition, in test [2], the “Biochemical Potency JAK 1 (pIC50)” value is given as 8.6. Taken in the same sequence, the figures for `N#Cc1ccc(N2CCC(Nc3c(C(N)=O)cnc4ccsc34)C2)cc1F` (stereo not drawn) [Example 4, 7-((1-(4-cyano-3-fluorophenyl)pyrrolidin-3-yl)amino)thieno[3,2-b]pyridine-6-carboxamide] were 3.16 µM and 7.

Consider `CN(c1ncnc2[nH]ccc12)[C@@H]1CCN(c2cnc(C#N)nc2)C1` [Example 10, (R)-5-(3-(methyl(7H-pyrrolo[2,3-d]pyrimidin-4-yl)amino)pyrrolidin-1-yl)pyrimidine-2-carbonitrile], for which, in test [1], it took 0.2 µM to reach half-maximal inhibition (IC50). In addition, in test [2], the “Biochemical Potency JAK 1 (pIC50)” value is 7.9. Taken in the same sequence, the figures for `N#Cc1ccc(N2CCC(Nc3c(C(=O)O)cnc4ccsc34)C2)cc1F` (stereo not drawn) [Example 8, 7-((1-(4-cyano-3-fluorophenyl)pyrrolidin-3-yl)amino)thieno[3,2-b]pyridine-6-carboxylic acid] were 31.6 µM and 5.3. As for `COC(=O)C(c1ccc(Cl)cc1F)N1CCC(N(C)c2ncnc3[nH]ccc23)C1` (stereo not drawn) [Example 5, methyl 2-(4-chloro-2-fluorophenyl)-2-(3-(methyl(7H-pyrrolo[2,3-d]pyrimidin-4-yl)amino)pyrrolidin-1-yl)acetate], the “Biochemical Potency JAK 1 (pIC50)” value in test [2] was found to be 7.6. `CN(c1ncnc2[nH]ccc12)C1CCN(c2ccc(C#N)nc2)C1` (stereo not drawn) [Example 2, 5-(3-(methyl(7H-pyrrolo[2,3-d]pyrimidin-4-yl)amino)pyrrolidin-1-yl)picolinonitrile] gave an IC50 in test [1] of 0.251 µM. Also, the “Biochemical Potency JAK 1 (pIC50)” value in test [2] was 7.9. In test [1], `CN(c1ncnc2[nH]ccc12)[C@@H]1CCN(c2ccc(C(=O)Nc3nccs3)cn2)C1` [Example 3, (R)-6-(3-(methyl(7H-pyrrolo[2,3-d]pyrimidin-4-yl)amino)pyrrolidin-1-yl)-N-(thiazol-2-yl)nicotinamide] showed an IC50 of 0.501 µM. Moreover, in test [2], the “Biochemical Potency JAK 1 (pIC50)” value worked out at 7.7.

A word on the IC50: it is the concentration that gives 50% inhibition.

(Values after US20240166651A1, “HETEROCYCLIC DERIVATIVES AS JANUS KINASE INHIBITORS” (CHIESI FARMACEUTICI S.P.A., priority 2021, published 2024).)
